23 molecules from patent US10597391B2, “Urea-containing isoxazole derivatives as FXR agonists and methods of use thereof” (Enanta Pharmaceuticals, Inc., priority 2016, dated 2020) can be followed below.

Each structure is given as a SMILES string.

The EC50 is the midpoint of the concentration-response curve.

The target of one assay is T1, human FXR (NR1H4) (Homo sapiens, UniProt Q96RI1).
T1 sequence (Q96RI1 1-486): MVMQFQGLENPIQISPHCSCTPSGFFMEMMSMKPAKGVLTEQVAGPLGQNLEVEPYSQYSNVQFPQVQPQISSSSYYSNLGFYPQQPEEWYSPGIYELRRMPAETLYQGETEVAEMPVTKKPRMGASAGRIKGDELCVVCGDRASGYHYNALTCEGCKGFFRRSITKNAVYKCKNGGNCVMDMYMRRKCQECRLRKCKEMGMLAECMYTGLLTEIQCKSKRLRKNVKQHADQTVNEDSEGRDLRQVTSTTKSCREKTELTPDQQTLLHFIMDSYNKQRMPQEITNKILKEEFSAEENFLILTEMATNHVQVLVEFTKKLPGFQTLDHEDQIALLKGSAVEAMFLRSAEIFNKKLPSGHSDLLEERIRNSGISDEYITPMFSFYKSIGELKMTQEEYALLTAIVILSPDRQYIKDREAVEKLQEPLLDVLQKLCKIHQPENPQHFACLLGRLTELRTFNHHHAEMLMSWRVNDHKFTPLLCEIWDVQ
Kind of assay: Human FXR (NR1H4) Assay: Gal4 promoter driven luciferase reporter transactivation in CHO cells (Indigo Bioscience kit IB00601). It is filed as cell-based. The note with it: CHO, read-out: Efficacy (%). The source says: Human FXR (NR1H4) Assay Determination of a ligand mediated Gal4 promoter driven transactivation to quantify ligand binding mediated activation of FXR. FXR Reporter Assay kit purchased from Indigo Bioscience (Catalogue number: IB00601) to determine the potency and efficacy of compounds that can induce FXR activation. The principle application of this reporter assay system is to quantify functional activity of human FXR. The assay utilizes non-human mammalian cells, CHO (Chinese hamster ovary) cells engineered to express human NR1H4 protein (referred to as FXR). Reporter cells also incorporate the cDNA encoding beetle luciferase which catalyzes the substrates and yields photon emission. Luminescence intensity of the reaction is quantified using a plate-reading luminometer, Envision. Reporter Cells include the luciferase reporter gene functionally linked to an FXR responsive promoter. Thus, quantifying changes in luciferase expression in the treated reporter cells provides a sensitive surrogate measure of the changes in FXR activity. […] The assay is according to the manufacturer's instructions. […] Retrieve Reporter Cells from −80° C. storage. Perform a rapid thaw of the frozen cells by transferring a 10 ml volume of 37° C. cell recovery medium into the tube of frozen cells. […] Retrieve the tube of Reporter Cell Suspension from the water bath. […] Dispense 90 μl of cell suspension into each well of the 96-well Assay Plate. Transfer the plate into 37° C. incubator, allowing the cells adherent to the bottom of the well. Dilute compounds in Dilution Plate (DP), and administrate to cells at Assay Plate (AP). […] Cells were incubated for additional 22 hours before luciferase activities were measured. Thirty minutes before intending to quantify FXR activity, remove Detection Substrate and Detection Buffer from the refrigerator and place them in a low-light area so that they may equilibrate to room temperature. Remove the plate's lid and discard all media contents by ejecting it into an appropriate waste container. Gently tap the inverted plate onto a clean absorbent paper towel to remove residual droplets. Cells will remain tightly adhered to well bottoms. Add 100 μl of luciferase detection reagent to each well of the assay plate. Allow the assay plate to rest at room temperature for at least 5 minutes following the addition of LDR. Set the instrument (Envision) to perform a single 5 second “plate shake” prior to reading the first assay well. Read time may be 0.5 second (500 mSec) per well.
(Reporter assays use an easily measured gene product as a stand-in for the process of interest.)
On to `COC(=O)c1ccc2c(c1)N(C(=O)N1C3CCC1CC(OCc1c(-c4ccccc4OC(F)(F)F)noc1C1CC1)C3)CC2` (stereo not shown) [Example 589], for which the Emax is 76%.
Regarding `O=C(O)c1ccc2c(c1)N(C(=O)N1C3CCC1CC(OCc1c(-c4ccccc4OC(F)(F)F)noc1C1CC1)C3)CC2` (stereo not shown) [Example 590], the Emax came out at 67%.

Still in this assay, the particulars now being: potency range, Human FXR (NR1H4) reporter assay in CHO cells; read-out: EC50.
`O=C(O)c1ccc(NC(=O)N2C3CCC2CC(OCc2c(-c4c(Cl)cccc4Cl)noc2C2CC2)C3)cn1` (stereo not shown) [Example 213]: the 50% effective concentration (EC50) was in the range of 100 to 1000 nM.
The same measure, in the same setting: with `O=C(c1cccc(NC(=O)N2C3CCC2CC(OCc2c(-c4c(Cl)cccc4Cl)noc2C2CC2)C3)c1)N1CCOCC1` (stereo not shown) [Example 214] the figure was 10 to 100 nM.
In the case of `CN(C)C(=O)c1cccc(NC(=O)N2C3CCC2CC(OCc2c(-c4c(Cl)cccc4Cl)noc2C2CC2)C3)c1` (stereo not shown) [Example 215], the EC50 was < 10 nM.
Still for that read-out and setting: the figure for `CC(C)(C)c1ccc(S(=O)(=O)NC(=O)c2cccc(NC(=O)N3C4CCC3CC(OCc3c(-c5c(Cl)cccc5Cl)noc3C3CC3)C4)c2)cc1` (stereo not shown) [Example 217] is > 1000 nM; for `CN(C)S(=O)(=O)NC(=O)c1cccc(NC(=O)N2C3CCC2CC(OCc2c(-c4c(Cl)cccc4Cl)noc2C2CC2)C3)c1` (stereo not shown) [Example 219] it is 100 to 1000 nM; for `CCOC(=O)c1cccc(NC(=O)N2C3CCC2CC(OCc2c(-c4ccccc4OC(F)(F)F)noc2C2CC2)C3)c1` (stereo not shown) [Example 227] it is 10 to 100 nM.
On to `CCOC(=O)c1ccc(NC(=O)N2C3CCC2CC(OCc2c(-c4ccccc4OC(F)(F)F)noc2C2CC2)C3)cc1` (stereo not shown) [Example 228], for which the EC50 is 100 to 1000 nM.
Still for that read-out and setting: with `O=C(O)c1cccc(NC(=O)N2C3CCC2CC(OCc2c(-c4ccccc4OC(F)(F)F)noc2C2CC2)C3)c1` (stereo not shown) [Example 229] the figure was 100 to 1000 nM; with `O=C(O)c1ccc(NC(=O)N2C3CCC2CC(OCc2c(-c4ccccc4OC(F)(F)F)noc2C2CC2)C3)cc1` (stereo not shown) [Example 230], 10 to 100 nM.
The same measure, in the same setting: the figure for `COC(=O)c1ccc(NC(=O)N2C3CCC2CC(OCc2c(-c4ccccc4OC(F)(F)F)noc2C2CC2)C3)c(OC)c1` (stereo not shown) [Example 236] is 10 to 100 nM; for `COC(=O)c1ccc(NC(=O)N2C3CCC2CC(OCc2c(-c4ccccc4OC(F)(F)F)noc2C2CC2)C3)c(F)c1` (stereo not shown) [Example 237] it is 100 to 1000 nM.
For `COc1cc(C(=O)O)ccc1NC(=O)N1C2CCC1CC(OCc1c(-c3ccccc3OC(F)(F)F)noc1C1CC1)C2` (stereo not shown) [Example 238], the EC50 is < 10 nM.
Take `O=C(O)c1ccc(NC(=O)N2C3CCC2CC(OCc2c(-c4ccccc4OC(F)(F)F)noc2C2CC2)C3)c(F)c1` (stereo not shown) [Example 239]: the half-maximal effective concentration (EC50) fell in the range of 10 to 100 nM.
Still for that read-out and setting: with `O=C(O)c1ccc(NC(=O)N2C3CCC2CC(OCc2c(-c4ccccc4OC(F)(F)F)noc2C2CC2)C3)cc1-c1ccccc1` (stereo not shown) [Example 247] the figure was < 10 nM; with `CS(=O)(=O)NC(=O)c1cccc(NC(=O)N2C3CCC2CC(OCc2c(-c4ccccc4OC(F)(F)F)noc2C2CC2)C3)c1` (stereo not shown) [Example 262], > 1000 nM.
The same measure, in the same setting: the figure for `CC(C)(C)c1ccc(S(=O)(=O)NC(=O)c2cccc(NC(=O)N3C4CCC3CC(OCc3c(-c5ccccc5OC(F)(F)F)noc3C3CC3)C4)c2)cc1` (stereo not shown) [Example 263] is > 1000 nM; for `O=C(NS(=O)(=O)C1CC1)c1cccc(NC(=O)N2C3CCC2CC(OCc2c(-c4ccccc4OC(F)(F)F)noc2C2CC2)C3)c1` (stereo not shown) [Example 264] it is > 1000 nM.
Still for that read-out and setting: the figure for `CN(C)S(=O)(=O)NC(=O)c1cccc(NC(=O)N2C3CCC2CC(OCc2c(-c4ccccc4OC(F)(F)F)noc2C2CC2)C3)c1` (stereo not shown) [Example 265] is 100 to 1000 nM; for `O=C(N[C@H]1CC[C@H](C(=O)O)CC1)N1C2CCC1CC(OCc1c(-c3ccccc3OC(F)(F)F)noc1C1CC1)C2` (stereo partly shown) [Example 266] it is 100 to 1000 nM; for `O=C(O)c1ccc(NC(=O)N2C3CCC2CC(OCc2c(C4CCC5(CC4)CC5)noc2C2CC2)C3)c(F)c1` (stereo not shown) [Example 285] it is 10 to 100 nM.
With `O=C(O)c1ccc(NC(=O)N2C3CCC2CC(OCc2c(C4CCC5(CC4)CC5)noc2C2CC2)C3)cc1-c1ccccc1` (stereo not shown) [Example 293], the EC50 lay within 10 to 100 nM.
As to `COC(=O)c1ccc2c(c1)N(C(=O)N1C3CCC1CC(OCc1c(-c4ccccc4OC(F)(F)F)noc1C1CC1)C3)CC2` (stereo not shown) [Example 589], the half-maximal effective concentration (EC50) is > 1000 nM.
In the case of `O=C(O)c1ccc2c(c1)N(C(=O)N1C3CCC1CC(OCc1c(-c4ccccc4OC(F)(F)F)noc1C1CC1)C3)CC2` (stereo not shown) [Example 590], the EC50 is > 1000 nM.
